Experimental data reported in ChEMBL document CHEMBL1201861, “Genomics of Drug Sensitity in Cancer screening data, Wellcome Trust Sanger Institute”.

What was measured:
Test in all cases: cells
CaR-1 = format: functional, cell-based, Homo sapiens; conditions: Homo sapiens, CaR-1;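 also: growth inhibition of human CaR-1 cancer cells, read out with a cell viability assay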
Description: SANGER: Inhibition of human CaR-1 cell growth in a cell viability assay.

DB = format: functional, cell-based; conditions: Homo sapiens
Description: SANGER: Inhibition of human DB cell growth in a cell viability assay.

GCIY = format: functional, cell-based, Homo sapiens; conditions: Homo sapiens, GCIY;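 also: growth inhibition of the human GCIY cell line, read out by a cell viability assay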
Description: SANGER: Inhibition of human GCIY cell growth in a cell viability assay.

IST-MEL1 = format: functional, cell-based, Homo sapiens; conditions: Homo sapiens, IST-MEL1;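 also: growth inhibition of the cell line, read out with a cell viability assay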
Description: SANGER: Inhibition of human IST-MEL1 cell growth in a cell viability assay.

J82 = format: functional, cell-based; conditions: Homo sapiens;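 also: growth inhibition of J82 cells, read out with a cell viability assay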
Description: SANGER: Inhibition of human J82 cell growth in a cell viability assay.

KINGS-1 = format: functional, cell-based, Homo sapiens; conditions: Homo sapiens, KINGS-1;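 also: cell viability assay measuring suppression of KINGS-1 cell growth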
Description: SANGER: Inhibition of human KINGS-1 cell growth in a cell viability assay.

KYSE-410 = format: functional, cell-based, Homo sapiens; conditions: Homo sapiens, KYSE-410;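 also: growth inhibition of KYSE-410 cells, measured through a cell viability readout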
Description: SANGER: Inhibition of human KYSE-410 cell growth in a cell viability assay.

KYSE-70 cell line = format: functional, cell-based, Homo sapiens; conditions: Homo sapiens, KYSE-70;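 also: cell viability assay read-out, with IC50 expressing suppression of KYSE-70 cell growth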
Description: SANGER: Inhibition of human KYSE-70 cell growth in a cell viability assay.

L-428 = format: functional, cell-based; conditions: Homo sapiens
Description: SANGER: Inhibition of human L-428 cell growth in a cell viability assay.

LB2518-MEL = format: functional, cell-based, Homo sapiens; conditions: Homo sapiens, LB2518-MEL;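 also: growth inhibition of human LB2518-MEL cells, measured with a cell viability assay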
Description: SANGER: Inhibition of human LB2518-MEL cell growth in a cell viability assay.

LCLC-97TM1 = format: functional, cell-based, Homo sapiens; conditions: Homo sapiens, LCLC-97TM1;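 also: cell viability assay measuring growth inhibition of human LCLC-97TM1 cells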
Description: SANGER: Inhibition of human LCLC-97TM1 cell growth in a cell viability assay.

LS-1034 = format: functional, cell-based, Homo sapiens; conditions: Homo sapiens, LS-1034
Description: SANGER: Inhibition of human LS-1034 cell growth in a cell viability assay.

LU-134-A = format: functional, cell-based; conditions: Homo sapiens
Description: SANGER: Inhibition of human LU-134-A cell growth in a cell viability assay.

Lu-65 = format: functional, cell-based; conditions: Homo sapiens;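 also: growth inhibition of Lu-65 cancer cells, read out by a cell viability assay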
Description: SANGER: Inhibition of human LU-65 cell growth in a cell viability assay.

LoVo = format: functional, cell-based; conditions: Homo sapiens;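 also: growth inhibition of human LoVo cells, read out with a cell viability assay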
Description: SANGER: Inhibition of human LoVo cell growth in a cell viability assay.

M14 = format: functional, cell-based, Homo sapiens; conditions: Homo sapiens, M14;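 also: growth inhibition of M14 cells, read out with a cell viability assay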
Description: SANGER: Inhibition of human M14 cell growth in a cell viability assay.

MDA-MB-175-VII = format: functional, cell-based, Homo sapiens; conditions: Homo sapiens, MDA-MB-175-VII
MDA-MB-415 = format: functional, cell-based; conditions: Homo sapiens
MFH-ino = format: functional, cell-based; conditions: Homo sapiens;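 also: growth inhibition of human MFH-ino cells, read out by a cell viability assay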
Description: SANGER: Inhibition of human MFH-ino cell growth in a cell viability assay.

MKN-1 = format: functional, cell-based, Homo sapiens; conditions: Homo sapiens, MKN-1;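 also: growth inhibition of human MKN1 cells, read out by a cell viability measurement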
Description: SANGER: Inhibition of human MKN1 cell growth in a cell viability assay.

MKN-7 = format: functional, cell-based, Homo sapiens; conditions: Homo sapiens, MKN-7;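 also: growth inhibition of MKN-7 cells, read out with a cell viability assay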
Description: SANGER: Inhibition of human MKN7 cell growth in a cell viability assay.

MN-60 = format: functional, cell-based; conditions: Homo sapiens;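 also: growth inhibition of the MN-60 cell line, determined with a cell viability assay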
Description: SANGER: Inhibition of human MN-60 cell growth in a cell viability assay.

NB10 = format: functional, cell-based, Homo sapiens; conditions: Homo sapiens, NB10;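 also: growth inhibition of NB10 cells, read out by a cell viability assay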
Description: SANGER: Inhibition of human NB10 cell growth in a cell viability assay.

NCI-H1838 = format: functional, cell-based, Homo sapiens; conditions: Homo sapiens, NCI-H1838;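 also: growth inhibition of NCI-H1838 cells, determined with a cell viability readout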
Description: SANGER: Inhibition of human NCI-H1838 cell growth in a cell viability assay.

NCI-H446 = format: functional, cell-based; conditions: Homo sapiens;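 also: growth inhibition of NCI-H446 cells determined by a cell viability assay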
Description: SANGER: Inhibition of human NCI-H446 cell growth in a cell viability assay.

NCI-H526 = format: functional, cell-based; conditions: Homo sapiens;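 also: growth inhibition of the human NCI-H526 cell line, measured by a cell viability assay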
Description: SANGER: Inhibition of human NCI-H526 cell growth in a cell viability assay.

PA-1 = format: functional, cell-based, Homo sapiens; conditions: Homo sapiens, PA-1;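 also: IC50 for suppression of PA-1 cell proliferation, determined with a cell viability read-out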
Description: SANGER: Inhibition of human PA-1 cell growth in a cell viability assay.

PFSK-1 = format: functional, cell-based, Homo sapiens; conditions: Homo sapiens, PFSK-1;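 also: cell viability assay measuring how strongly compounds suppress growth of human PFSK-1 cells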
Description: SANGER: Inhibition of human PFSK-1 cell growth in a cell viability assay.

RERF-LC-MS = format: functional, cell-based, Homo sapiens; conditions: Homo sapiens, RERF-LC-MS;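 also: growth inhibition of human RERF-LC-MS cells, read out by a cell viability assay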
Description: SANGER: Inhibition of human RERF-LC-MS cell growth in a cell viability assay.

RT-112 = format: functional, cell-based, Homo sapiens; conditions: Homo sapiens, RT-112
Description: SANGER: Inhibition of human RT-112 cell growth in a cell viability assay.

SCC-15 = format: functional, cell-based, Homo sapiens; conditions: Homo sapiens, SCC-15;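 also: growth inhibition of SCC-15 cells, read out with a cell viability assay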
Description: SANGER: Inhibition of human SCC-15 cell growth in a cell viability assay.

SK-N-DZ = format: functional, cell-based, Homo sapiens; conditions: Homo sapiens, SK-N-DZ;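 also: growth inhibition of the cancer cell line, read out through a viability assay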
Description: SANGER: Inhibition of human SK-N-DZ cell growth in a cell viability assay.

SW1088 = format: functional, cell-based, Homo sapiens; conditions: Homo sapiens, SW1088;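 also: growth inhibition of human SW1088 cells, read out by a cell viability assay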
Description: SANGER: Inhibition of human SW1088 cell growth in a cell viability assay.

SW948 = format: functional, cell-based, Homo sapiens; conditions: Homo sapiens, SW948;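 also: growth inhibition of SW948 cells, read out with a cell viability assay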
Description: SANGER: Inhibition of human SW948 cell growth in a cell viability assay.

SiHa = format: functional, cell-based, Homo sapiens; conditions: Homo sapiens, SiHa;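 also: Viability-based readout of growth inhibition in SiHa cells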
Description: SANGER: Inhibition of human SiHa cell growth in a cell viability assay.

TCC-SUP = format: functional, cell-based, Homo sapiens; conditions: Homo sapiens, TCC-SUP;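 also: growth inhibition of TCC-SUP cells, read out with a cell viability assay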
Description: SANGER: Inhibition of human TCCSUP cell growth in a cell viability assay.

786-0 = format: functional, cell-based, Homo sapiens; conditions: Homo sapiens
Description: SANGER: Inhibition of human 786-0 cell growth in a cell viability assay.

A-427 = format: functional, cell-based, Homo sapiens; conditions: Homo sapiens, A-427;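 also: growth inhibition of human A-427 cells, read out by a cell viability assay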
Description: SANGER: Inhibition of human A427 cell growth in a cell viability assay.

A498 = format: functional, cell-based, Homo sapiens; conditions: Homo sapiens, A498;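 also: growth inhibition of human A498 cells, read out with a cell viability assay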
Description: SANGER: Inhibition of human A498 cell growth in a cell viability assay.

AN3-CA = format: functional, cell-based; conditions: Homo sapiens;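 also: growth inhibition of human AN3-CA cells measured by a cell viability assay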
Description: SANGER: Inhibition of human AN3-CA cell growth in a cell viability assay.

BB49-HNC = format: functional, cell-based, Homo sapiens; conditions: Homo sapiens, BB49-HNC;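 also: cell viability assay read-out, reported as inhibition of BB49-HNC cell growth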
Description: SANGER: Inhibition of human BB49-HNC cell growth in a cell viability assay.

BB65-RCC = format: functional, cell-based, Homo sapiens; conditions: Homo sapiens, BB65-RCC;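 also: growth inhibition of the cell line, measured with a cell viability assay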
Description: SANGER: Inhibition of human BB65-RCC cell growth in a cell viability assay.

BCPAP = format: functional, cell-based, Homo sapiens; conditions: Homo sapiens, BCPAP;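 also: growth inhibition of BCPAP cells, read out in a cell viability assay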
Description: SANGER: Inhibition of human BCPAP cell growth in a cell viability assay.

BPH-1 = format: functional, cell-based, Homo sapiens; conditions: Homo sapiens, BPH-1;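 also: cell viability assay measuring growth inhibition of human BPH-1 cells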
Description: SANGER: Inhibition of human BPH-1 cell growth in a cell viability assay.

BT-474 = format: functional, cell-based, Homo sapiens; conditions: Homo sapiens, BT-474
Description: SANGER: Inhibition of human BT-474 cell growth in a cell viability assay.

C32 = format: functional, cell-based, Homo sapiens; conditions: Homo sapiens, C32;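 also: cell viability assay, with IC50 reflecting inhibition of C32 cell growth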
Description: SANGER: Inhibition of human C32 cell growth in a cell viability assay.

C3A = format: functional, cell-based, Homo sapiens; conditions: Homo sapiens, C3A;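 also: growth inhibition of C3A human cells, quantified with a cell viability readout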
Description: SANGER: Inhibition of human C3A cell growth in a cell viability assay.

CAL-120 = format: functional, cell-based, Homo sapiens; conditions: Homo sapiens, CAL-120;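 also: cell growth inhibition, read out as cell viability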
Description: SANGER: Inhibition of human CAL-120 cell growth in a cell viability assay.

U-118-MG = format: functional, cell-based, Homo sapiens; conditions: Homo sapiens, U-118-MG
Description: SANGER: Inhibition of human U-118-MG cell growth in a cell viability assay.

U-266 = format: functional, cell-based; conditions: Homo sapiens
Description: SANGER: Inhibition of human U-266 cell growth in a cell viability assay.

UO-31 = format: functional, cell-based; conditions: Homo sapiens;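 also: cell viability assay measuring inhibition of cell growth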
Description: SANGER: Inhibition of human U031 cell growth in a cell viability assay.

CHP-212 = format: functional, cell-based, Homo sapiens; conditions: Homo sapiens, CHP-212
Description: SANGER: Inhibition of human CHP-212 cell growth in a cell viability assay.

C=CCNC1=C2C[C@@H](C)C[C@H](OC)[C@H](O)[C@@H](C)/C=C(\C)[C@H](OC(N)=O)[C@@H](OC)/C=C\C=C(/C)C(=O)NC(=CC1=O)C2=O [TANESPIMYCIN]
IC50 (CaR-1): 45.5 nM
IC50 (DB): > 1000 nM
IC50 (GCIY): 918 nM
IC50 (IST-MEL1): < 3.91 nM
IC50 (J82): 273 nM
IC50 (KINGS-1): 245 nM
IC50 (KYSE-410): 47.7 nM
IC50 (KYSE-70 cell line): 333 nM
IC50 (L-428): > 1000 nM
IC50 (LB2518-MEL): 258 nM
IC50 (LCLC-97TM1): 87.3 nM
IC50 (LS-1034): > 1000 nM
IC50 (LU-134-A): 261 nM
IC50 (Lu-65): 926 nM
IC50 (LoVo): > 1000 nM
IC50 (M14): 79.1 nM
IC50 (MDA-MB-175-VII): 33.5 nM
IC50 (MDA-MB-415): 708 nM
IC50 (MFH-ino): > 1000 nM
IC50 (MKN-1): 588 nM
IC50 (MKN-7): > 1000 nM
IC50 (MN-60): > 1000 nM
IC50 (NB10): > 1000 nM
IC50 (NCI-H1838): > 1000 nM
IC50 (NCI-H446): > 1000 nM
IC50 (NCI-H526): > 1000 nM
IC50 (PA-1): 954 nM
IC50 (PFSK-1): > 1000 nM
IC50 (RERF-LC-MS): 746 nM
IC50 (RT-112): 140 nM
IC50 (SCC-15): > 1000 nM
IC50 (SK-N-DZ): > 1000 nM
IC50 (SW1088): 164 nM
IC50 (SW948): > 1000 nM
IC50 (SiHa): 105 nM
IC50 (TCC-SUP): 59.6 nM
IC50 (786-0): 154 nM
IC50 (A-427): 420 nM
IC50 (A498): 102 nM
IC50 (AN3-CA): 50 nM
IC50 (BB49-HNC): 42.4 nM
IC50 (BB65-RCC): 106 nM
IC50 (BCPAP): 189 nM
IC50 (BPH-1): 134 nM
IC50 (BT-474): 45 nM
IC50 (C32): 3.04 nM
IC50 (C3A): 454 nM
IC50 (CAL-120): 534 nM
IC50 (U-118-MG): 276 nM
IC50 (U-266): > 1000 nM
IC50 (UO-31): 205 nM
IC50 (CHP-212): 26.3 nM

C[C@]1(O)C[C@@H](c2nc(-c3ccc4ccc(-c5ccccc5)nc4c3)c3c(N)nccn32)C1 [LINSITINIB]
IC50 (CaR-1): > 2560 nM
IC50 (DB): > 2560 nM
IC50 (GCIY): > 2560 nM
IC50 (IST-MEL1): > 2560 nM
IC50 (J82): > 2560 nM
IC50 (KINGS-1): > 2560 nM
IC50 (KYSE-410): > 2560 nM
IC50 (KYSE-70 cell line): > 2560 nM
IC50 (L-428): > 2560 nM
IC50 (LB2518-MEL): > 2560 nM
IC50 (LCLC-97TM1): 210 nM
IC50 (LS-1034): 271 nM
IC50 (LU-134-A): 2280 nM
IC50 (Lu-65): > 2560 nM
IC50 (LoVo): > 2560 nM
IC50 (M14): > 2560 nM
IC50 (MDA-MB-175-VII): > 2560 nM
IC50 (MDA-MB-415): > 2560 nM
IC50 (MFH-ino): > 2560 nM
IC50 (MKN-1): > 2560 nM
IC50 (MKN-7): > 2560 nM
IC50 (MN-60): > 2560 nM
IC50 (NB10): 454 nM
IC50 (NCI-H1838): > 2560 nM
IC50 (NCI-H446): > 2560 nM
IC50 (NCI-H526): > 2560 nM
IC50 (PA-1): > 2560 nM
IC50 (PFSK-1): > 2560 nM
IC50 (RERF-LC-MS): > 2560 nM
IC50 (RT-112): > 2560 nM
IC50 (SCC-15): > 2560 nM
IC50 (SK-N-DZ): 237 nM
IC50 (SW1088): > 2560 nM
IC50 (SW948): > 2560 nM
IC50 (SiHa): > 2560 nM
IC50 (TCC-SUP): > 2560 nM
IC50 (786-0): > 2560 nM
IC50 (A-427): > 2560 nM
IC50 (A498): > 2560 nM
IC50 (AN3-CA): > 2560 nM
IC50 (BB49-HNC): > 2560 nM
IC50 (BB65-RCC): > 2560 nM
IC50 (BCPAP): > 2560 nM
IC50 (BPH-1): > 2560 nM
IC50 (BT-474): > 2560 nM
IC50 (C32): > 2560 nM
IC50 (C3A): > 2560 nM
IC50 (CAL-120): > 2560 nM
IC50 (U-118-MG): > 2560 nM
IC50 (U-266): > 2560 nM
IC50 (UO-31): > 2560 nM
IC50 (CHP-212): > 2560 nM
